Results reported in patent US8178677B2, “Hydroxyalkyl substituted imidazoquinolines” (3M Innovative Properties Company, priority 2005, dated 2012).
Counter-ions that a name gives are not always drawn. Like-named read-outs stand apart in the source and are kept apart here.

Columns and labels:
[1] = test system: interferon (α) (IFN-α) induction in human peripheral blood mononuclear cells (PBMC); test: Cytokine induction in human cells (PBMC): IFN-α secreted into culture media, ELISA; assay type: cell-based; details: read-out: Minimum Effective Concentration (μM) IFN
Description: (§1) Cytokine Induction in Human Cells
(§2) An in vitro human blood cell system is used to assess cytokine induction. Activity is based on the measurement of interferon (α) and tumor necrosis factor (α) (IFN-α and TNF-α, respectively) secreted into culture media as described by Testerman et. al. in “Cytokine Induction by the Immunomodulators Imiquimod and S-27609”, Journal of Leukocyte Biology, 58, 365-372 (September, 1995).
(§3) Blood Cell Preparation for Culture
(§4) Whole blood from healthy human donors is collected by venipuncture into vacutainer tubes or syringes containing EDTA. Peripheral blood mononuclear cells (PBMC) are separated from whole blood by density gradient centrifugation using HISTOPAQUE-1077 (Sigma, St. Louis, Mo.) or Ficoll-Paque Plus (Amersham Biosciences Piscataway, N.J.). Blood is diluted 1:1 with Dulbecco's Phosphate Buffered Saline (DPBS) or Hank's Balanced Salts Solution (HBSS). Alternately, whole blood is placed in Accuspin (Sigma) or LeucoSep (Greiner Bio-One, Inc., Longwood, Fla.) centrifuge frit tubes containing density gradient medium. The PBMC layer is collected and washed twice with DPBS or HBSS and re-suspended at 4×10^6 cells/mL in RPMI complete. The PBMC suspension is added to 96 well flat bottom sterile tissue culture plates containing an equal volume of RPMI complete media containing test compound.
(§5) The compounds are solubilized in dimethyl sulfoxide (DMSO). The DMSO concentration should not exceed a final concentration of 1% for addition to the culture wells. The compounds are generally tested at concentrations ranging from 30-0.014 μM. Controls include cell samples with media only, cell samples with DMSO only (no compound), and cell samples with reference compound.
(§6) The solution of test compound is added at 60 μM to the first well containing RPMI complete and serial 3 fold dilutions are made in the wells. The PBMC suspension is then added to the wells in an equal volume, bringing the test compound concentrations to the desired range (usually 30-0.014 μM). The final concentration of PBMC suspension is 2×10^6 cells/mL. The plates are covered with sterile plastic lids, mixed gently and then incubated for 18 to 24 hours at 37° C. in a 5% carbon dioxide atmosphere.
(§7) Following incubation the plates are centrifuged for 10 minutes at 1000 rpm (approximately 200×g) at 4° C. The cell-free culture supernatant is removed and transferred to sterile polypropylene tubes. Samples are maintained at −30 to −70° C. until analysis. The samples are analyzed for IFN-α by ELISA and for TNF-α by IGEN/BioVeris Assay.
(§8) Interferon (α) and Tumor Necrosis Factor (α) Analysis
IFN-α concentration is determined with a human multi-subtype calorimetric sandwich ELISA (Catalog Number 41105) from PBL Biomedical Laboratories, Piscataway, N.J. Results are expressed in pg/mL.
(§9) In total, the data output of the assay consists of concentration values of TNF-α and IFN-α (y-axis) as a function of compound concentration (x-axis).
Analysis of the data has two steps. First, the greater of the mean DMSO (DMSO control wells) or the experimental background (usually 20 pg/mL for IFN-α and 40 pg/mL for TNF-α) is subtracted from each reading. If any negative values result from background subtraction, the reading is reported as “*”, and is noted as not reliably detectable. In subsequent calculations and statistics, “*”, is treated as a zero. Second, all background subtracted values are multiplied by a single adjustment ratio to decrease experiment to experiment variability. The adjustment ratio is the area of the reference compound in the new experiment divided by the expected area of the reference compound based on the past 61 experiments (unadjusted readings). […] The reference compound used is 2-[4-amino-2-ethoxymethyl-6,7,8,9-tetrahydro-α,α-dimethyl-1H-imidazo[4,5-c]quinolin-1-yl]ethanol hydrate (U.S. Pat. No. 5,352,784; Example 91) and the expected area is the sum of the median dose values from the past 61 experiments. […]

[2] = test system: tumor necrosis factor (α) (TNF-α) induction in human peripheral blood mononuclear cells (PBMC); test: Cytokine induction in human cells (PBMC): TNF-α secreted into culture media, ORIGEN M-Series immunoassay; assay type: cell-based; details: for minimal effective concentration: Homo sapiens, PBMC, read-out: Minimum Effective Concentration (μM) TNF; for Maximal Response (pg/mL) TNF: background-subtracted
Description: as §1, §2, §3, §4, §5, §6, §7, §8
The TNF-α concentration is determined by ORIGEN M-Series Immunoassay and read on an IGEN M-8 analyzer from BioVeris Corporation, formerly known as IGEN International, Gaithersburg, Md. The immunoassay uses a human TNF-α capture and detection antibody pair (Catalog Numbers AHC3419 and AHC3712) from Biosource International, Camarillo, Calif. Results are expressed in pg/mL.
as §9
Analysis of the data has two steps. First, the greater of the mean DMSO (DMSO control wells) or the experimental background (usually 20 pg/mL for IFN-α and 40 pg/mL for TNF-α) is subtracted from each reading. If any negative values result from background subtraction, the reading is reported as “*”, and is noted as not reliably detectable. In subsequent calculations and statistics, “*”, is treated as a zero. Second, all background subtracted values are multiplied by a single adjustment ratio to decrease experiment to experiment variability. The adjustment ratio is the area of the reference compound in the new experiment divided by the expected area of the reference compound based on the past 61 experiments (unadjusted readings). […]

[3] = lowest tested concentration inducing IFN-α over 20 pg/mL, median where more than one experiment
[4] = lowest tested concentration inducing TNF-α over 40 pg/mL, median where more than one experiment
[5] = 18 to 24 hours incubation, tested 30-0.014 μM, lowest concentration inducing response over 20 pg/mL IFN-α, median of # experiments
[6] = 18 to 24 hours incubation, tested 30-0.014 μM, lowest concentration inducing response over 40 pg/mL TNF-α, median of # experiments
[7] = maximal response in dose response curve, reference-adjusted, median where more than one experiment, * = below background of 40 pg/mL

CC(C)(Cn1c(CO)nc2c(N)nc3ccccc3c21)NC(=O)C1CCCCC1 [Example 5, N-[2-(4-Amino-2-hydroxymethyl-1H-imidazo[4,5-c]quinolin-1-yl)-1,1-dimethylethyl]cyclohexanecarboxamide]
minimal effective concentration [1, 3]: 0.37 µM
minimal effective concentration [2, 4]: 10 µM
melting point: 248 to 250 °C

Nc1nc2ccccc2c2c1nc(CCO)n2CCCNC(=O)c1cc2ccccc2cn1 [Example 2, N-{3-[4-Amino-2-(2-hydroxyethyl)-1H-imidazo[4,5-c]quinolin-1-yl]propyl}isoquinoline-3-carboxamide]
minimal effective concentration [1, 3]: 3.33 µM
minimal effective concentration [2, 4]: 3.33 µM
melting point: 245 to 246 °C

Cc1ccc(S(=O)(=O)NCCCn2c(CCO)nc3c(N)nc4ccccc4c32)cc1 [Example 1, N-{3-[4-Amino-2-(2-hydroxyethyl)-1H-imidazo[4,5-c]quinolin-1-yl]propyl}-4-methylbenzenesulfonamide]
minimal effective concentration [1, 3]: 0.37 µM
minimal effective concentration [2, 4]: 10 µM
melting point: 231 to 232 °C

CC(C)[C@H](NC(=O)OCc1ccccc1)C(=O)OCc1nc2c(N)nc3ccccc3c2n1CCCCNS(C)(=O)=O [Example 148, (4-Amino-1-{4-[(methylsulfonyl)amino]butyl}-1H-imidazo[4,5-c]quinolin-2-yl)methyl N-[(benzyloxy)carbonyl]-L-valinate]
melting point: 99 to 100 °C

CC(C)(Cn1c(CCO)nc2c(N)nc3ccccc3c21)NS(C)(=O)=O [Example 6, N-{2-[4-Amino-2-(2-hydroxyethyl)-1H-imidazo[4,5-c]quinolin-1-yl]-1,1-dimethylethyl}methanesulfonamide]
minimal effective concentration [1, 5]: 1.11 µM
minimal effective concentration [1, 3]: 1.11 µM
Maximal Response (pg/mL) TNF ([2]; 18 to 24 hours incubation, reference-adjusted maximal response of dose response curve, median of # experiments): * (TNF below experimental background of 40 pg/mL.)
minimal effective concentration [2, 6]: > 30 µM
minimal effective concentration [2, 4]: 30 µM
Maximal Response (pg/mL) TNF [2, 7]: * (TNF below experimental background of 40 pg/mL.)
melting point: 209 to 212 °C

CC(C)C(=O)NCCCCn1c(CO)nc2c(N)nc3ccccc3c21 (as salt: salt) [Example 146, N-[4-(4-amino-2-hydroxymethyl-1H-imidazo[4,5-c]quinolin-1-yl)butyl]isobutyramide]
melting point: 222 to 224 °C

CC(C)NC(=O)NC(C)(C)Cn1c(CO)nc2c(N)nc3ccccc3c21 [Example 142, 1-[2-(4-Amino-2-hydroxymethyl-1H-imidazo[4,5-c]quinolin-1-yl)-1,1-dimethylethyl]-3-(1-methylethyl)urea]
minimal effective concentration [1, 3]: 1.11 µM
minimal effective concentration [2, 4]: > 30 µM
Maximal Response (pg/mL) TNF [2, 7]: * (TNF below experimental background of 40 pg/mL.)
melting point: 196 to 199 °C

CCc1nc2c(N)nc3ccccc3c2n1CC(C)(C)NS(C)(=O)=O [Analog 2, N-[2-(4-Amino-2-ethyl-1H-imidazo[4,5-c]quinolin-1-yl)-1,1-dimethylethyl]methanesulfonamide, reference compound]
minimal effective concentration [1, 5]: 0.12 µM
minimal effective concentration [1, 3]: 0.12 µM
minimal effective concentration [2, 6]: 1.11 µM
minimal effective concentration [2, 4]: 1.11 µM

Nc1nc2ccccc2c2c1nc(CO)n2CC1CCOCC1 [Example 150, [4-Amino-1-(tetrahydro-2H-pyran-4-ylmethyl)-1H-imidazo[4,5-c]quinolin-2-yl]methanol]
melting point: 239 to 241 °C

Cc1nc2c(N)nc3ccccc3c2n1CC(C)(C)NS(C)(=O)=O [Analog 1, N-[2-(4-Amino-2-methyl-1H-imidazo[4,5-c]quinolin-1-yl)-1,1-dimethylethyl]methanesulfonamide, reference compound]
minimal effective concentration [1, 5]: 0.37 µM
minimal effective concentration [1, 3]: 0.37 µM
minimal effective concentration [2, 6]: 3.33 µM
minimal effective concentration [2, 4]: 3.33 µM

CCOCc1nc2c(N)nc3ccccc3c2n1CC(C)(C)NS(C)(=O)=O [Analog 4, N-[2-(4-Amino-2-ethoxymethyl-1H-imidazo[4,5-c]quinolin-1-yl)-1,1-dimethylethyl]methanesulfonamide, reference compound]
minimal effective concentration [1, 5]: 0.04 µM
minimal effective concentration [1, 3]: 0.04 µM
minimal effective concentration [2, 6]: 0.37 µM
minimal effective concentration [2, 4]: 0.37 µM

CC(C)(N)Cn1c(CO)nc2c(N)nc3ccccc3c21 [Example 4, 1-(2-Amino-2-methylpropyl)-2-hydroxymethyl-1H-imidazo[4,5-c]quinolin-4-amine]
minimal effective concentration [1, 3]: 0.37 µM
minimal effective concentration [2, 4]: 3.33 µM
melting point: 248 to 250 °C

CC(C)[C@H](N)C(=O)OCc1nc2c(N)nc3ccccc3c2n1CCCCNS(C)(=O)=O [Example 149, (4-Amino-1-{4-[(methylsulfonyl)amino]butyl}-1H-imidazo[4,5-c]quinolin-2-yl)methyl L-valinate]
melting point: 161 to 163 °C

Nc1nc2ccccc2c2c1nc(CO)n2CCCCNC(=O)C1CCCC1 [Example 145, N-{4-[4-amino-2-(hydroxymethyl)-1H-imidazo[4,5-c]quinolin-1-yl]butyl}cyclopentanecarboxamide]
melting point: 183 to 186 °C

COCCc1nc2c(N)nc3ccccc3c2n1CC(C)(C)NS(C)(=O)=O [Analog 5, N-{2-[4-Amino-2-(2-methoxyethyl)-1H-imidazo[4,5-c]quinolin-1-yl]-1,1-dimethylethyl}methanesulfonamide, reference compound]
minimal effective concentration [1, 5]: 0.014 µM
minimal effective concentration [1, 3]: 0.014 µM
minimal effective concentration [2, 6]: 0.12 µM
minimal effective concentration [2, 4]: 0.12 µM

CCCc1nc2c(N)nc3ccccc3c2n1CC(C)(C)NS(C)(=O)=O [Analog 3, N-[2-(4-Amino-2-propyl-1H-imidazo[4,5-c]quinolin-1-yl)-1,1-dimethylethyl]methanesulfonamide, reference compound]
minimal effective concentration [1, 5]: 0.12 µM
minimal effective concentration [1, 3]: 0.12 µM
minimal effective concentration [2, 6]: 0.37 µM
minimal effective concentration [2, 4]: 0.37 µM
